Tests used:
Assay in all cases: relative viability (nuclei count vs DMSO), 5 days (fraction); higher = more cells survive
IMD-0354 + OSI-027 = compound: O=C(Nc1cc(C(F)(F)F)cc(C(F)(F)F)c1)c1cc(Cl)ccc1O [IMD-0354] + COc1cccc2cc(-c3nc([C@H]4CC[C@H](C(=O)O)CC4)n4ncnc(N)c34)[nH]c12 [OSI-027] (partner 0.5 µM)
In short: (§1)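 Relative viability was taken as the ratio of nuclei in treated wells to nuclei in vehicle wells. Lung cancer cell lines in 1536-well plates received compounds by pin tool one day after seeding, either one drug alone or a fixed anchor-drug dose plus five library-drug doses (not always all listed) in √10 steps. Nuclei were counted on 4× images after 5 days of treatment, and values are medians of duplicate plates.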

IMD-0354 + Alpelisib = compound: O=C(Nc1cc(C(F)(F)F)cc(C(F)(F)F)c1)c1cc(Cl)ccc1O [IMD-0354] + Cc1nc(NC(=O)N2CCC[C@H]2C(N)=O)sc1-c1ccnc(C(C)(C)C(F)(F)F)c1 [Alpelisib] (partner 2 µM)
In short: as §1

IMD-0354 + Vorinostat = compound: O=C(Nc1cc(C(F)(F)F)cc(C(F)(F)F)c1)c1cc(Cl)ccc1O [IMD-0354] + O=C(CCCCCCC(=O)Nc1ccccc1)NO [Vorinostat] (partner 1 µM)
In short: as §1

IMD-0354 + Linsitinib = compound: O=C(Nc1cc(C(F)(F)F)cc(C(F)(F)F)c1)c1cc(Cl)ccc1O [IMD-0354] + C[C@]1(O)C[C@@H](c2nc(-c3ccc4ccc(-c5ccccc5)nc4c3)c3c(N)nccn32)C1 [Linsitinib] (partner 1 µM)
In short: as §1

SK-MES-1
relative viability (IMD-0354 + OSI-027; first compound 0.04 µM): 0.647
relative viability (IMD-0354 + OSI-027; first compound 0.1265 µM): 0.542
relative viability (IMD-0354 + OSI-027; first compound 0.4 µM): 0.462
relative viability (IMD-0354 + OSI-027; first compound 1.265 µM): 0.199
relative viability (IMD-0354 + OSI-027; first compound 4 µM): 0.202
relative viability (IMD-0354 + Alpelisib; first compound 0.04 µM): 0.976
relative viability (IMD-0354 + Alpelisib; first compound 0.1265 µM): 0.834
relative viability (IMD-0354 + Alpelisib; first compound 0.4 µM): 0.598
relative viability (IMD-0354 + Alpelisib; first compound 1.265 µM): 0.283
relative viability (IMD-0354 + Alpelisib; first compound 4 µM): 0.285
relative viability (IMD-0354 + Vorinostat; first compound 0.04 µM): 1.4
relative viability (IMD-0354 + Vorinostat; first compound 0.1265 µM): 1.09
relative viability (IMD-0354 + Vorinostat; first compound 0.4 µM): 0.693
relative viability (IMD-0354 + Vorinostat; first compound 1.265 µM): 0.305
relative viability (IMD-0354 + Vorinostat; first compound 4 µM): 0.192
relative viability (IMD-0354 + Linsitinib; first compound 0.04 µM): 1.05
relative viability (IMD-0354 + Linsitinib; first compound 0.1265 µM): 1.08
relative viability (IMD-0354 + Linsitinib; first compound 0.4 µM): 0.762
relative viability (IMD-0354 + Linsitinib; first compound 1.265 µM): 0.719
relative viability (IMD-0354 + Linsitinib; first compound 4 µM): 0.221

EPLC-272H
relative viability (IMD-0354 + OSI-027; first compound 0.04 µM): 0.288
relative viability (IMD-0354 + OSI-027; first compound 0.1265 µM): 0.281
relative viability (IMD-0354 + OSI-027; first compound 0.4 µM): 0.292
relative viability (IMD-0354 + OSI-027; first compound 1.265 µM): 0.167
relative viability (IMD-0354 + OSI-027; first compound 4 µM): 0.0714
relative viability (IMD-0354 + Alpelisib; first compound 0.04 µM): 1.04
relative viability (IMD-0354 + Alpelisib; first compound 0.1265 µM): 0.893
relative viability (IMD-0354 + Alpelisib; first compound 0.4 µM): 0.648
relative viability (IMD-0354 + Alpelisib; first compound 1.265 µM): 0.842
relative viability (IMD-0354 + Alpelisib; first compound 4 µM): 0.374
relative viability (IMD-0354 + Vorinostat; first compound 0.04 µM): 0.285
relative viability (IMD-0354 + Vorinostat; first compound 0.1265 µM): 0.463
relative viability (IMD-0354 + Vorinostat; first compound 0.4 µM): 0.754
relative viability (IMD-0354 + Vorinostat; first compound 1.265 µM): 0.172
relative viability (IMD-0354 + Vorinostat; first compound 4 µM): 0.338
relative viability (IMD-0354 + Linsitinib; first compound 0.04 µM): 1.3
relative viability (IMD-0354 + Linsitinib; first compound 0.1265 µM): 1.09
relative viability (IMD-0354 + Linsitinib; first compound 0.4 µM): 0.626
relative viability (IMD-0354 + Linsitinib; first compound 1.265 µM): 0.945
relative viability (IMD-0354 + Linsitinib; first compound 4 µM): 0.31

NCI-H1793
relative viability (IMD-0354 + OSI-027; first compound 0.04 µM): 0.319
relative viability (IMD-0354 + OSI-027; first compound 0.1265 µM): 0.293
relative viability (IMD-0354 + OSI-027; first compound 0.4 µM): 0.161
relative viability (IMD-0354 + OSI-027; first compound 1.265 µM): 0.165
relative viability (IMD-0354 + OSI-027; first compound 4 µM): 0.131
relative viability (IMD-0354 + Alpelisib; first compound 0.04 µM): 0.686
relative viability (IMD-0354 + Alpelisib; first compound 0.1265 µM): 0.64
relative viability (IMD-0354 + Alpelisib; first compound 0.4 µM): 0.34
relative viability (IMD-0354 + Alpelisib; first compound 1.265 µM): 0.369
relative viability (IMD-0354 + Alpelisib; first compound 4 µM): 0.226
relative viability (IMD-0354 + Vorinostat; first compound 0.04 µM): 0.698
relative viability (IMD-0354 + Vorinostat; first compound 0.1265 µM): 0.949
relative viability (IMD-0354 + Vorinostat; first compound 0.4 µM): 0.461
relative viability (IMD-0354 + Vorinostat; first compound 1.265 µM): 0.262
relative viability (IMD-0354 + Vorinostat; first compound 4 µM): 0.287
relative viability (IMD-0354 + Linsitinib; first compound 0.04 µM): 1.15
relative viability (IMD-0354 + Linsitinib; first compound 0.1265 µM): 0.802
relative viability (IMD-0354 + Linsitinib; first compound 0.4 µM): 0.349
relative viability (IMD-0354 + Linsitinib; first compound 1.265 µM): 0.298
relative viability (IMD-0354 + Linsitinib; first compound 4 µM): 0.224

NCI-H2126
relative viability (IMD-0354 + OSI-027; first compound 0.04 µM): 0.752
relative viability (IMD-0354 + OSI-027; first compound 0.1265 µM): 0.609
relative viability (IMD-0354 + OSI-027; first compound 0.4 µM): 0.594
relative viability (IMD-0354 + OSI-027; first compound 1.265 µM): 0.588
relative viability (IMD-0354 + OSI-027; first compound 4 µM): 0.524
relative viability (IMD-0354 + Alpelisib; first compound 0.04 µM): 0.784
relative viability (IMD-0354 + Alpelisib; first compound 0.1265 µM): 0.722
relative viability (IMD-0354 + Alpelisib; first compound 0.4 µM): 0.682
relative viability (IMD-0354 + Alpelisib; first compound 1.265 µM): 0.714
relative viability (IMD-0354 + Alpelisib; first compound 4 µM): 0.263
relative viability (IMD-0354 + Vorinostat; first compound 0.04 µM): 0.762
relative viability (IMD-0354 + Vorinostat; first compound 0.1265 µM): 0.826
relative viability (IMD-0354 + Vorinostat; first compound 0.4 µM): 0.692
relative viability (IMD-0354 + Vorinostat; first compound 1.265 µM): 0.382
relative viability (IMD-0354 + Vorinostat; first compound 4 µM): 0.289
relative viability (IMD-0354 + Linsitinib; first compound 0.04 µM): 0.644
relative viability (IMD-0354 + Linsitinib; first compound 0.1265 µM): 0.685
relative viability (IMD-0354 + Linsitinib; first compound 0.4 µM): 0.715
relative viability (IMD-0354 + Linsitinib; first compound 1.265 µM): 0.577
relative viability (IMD-0354 + Linsitinib; first compound 4 µM): 0.316
